Experimental findings from patent US20090081174A1 (priority 2005, published 2009) are described below.

Read-outs that look alike come from different tables or passages of the source.

For one assay, the system named is Phytophthora infestans. In kind it is in vivo. The conditions noted are these: potato plants, scale 100 to 0.
In a further assay the test system is Plasmopara viticola. In words: 7-day preventive activity on Plasmopara viticola, leaf application on vines. In kind it is in vivo. As for the experimental part: Leaves of cultivar Merlot vines, grown in vases, in a conditioned environment (20±1° C., 70% relative humidity) are treated by spraying both sides of the leaves with the mixtures under examination dispersed in an aqueous solution containing a 0.3% of tween 20.
After remaining 7 days in a conditioned environment, the plants are infected on the lower side with an aqueous suspension of spores of Plasmopara viticola (200,000 spores per cm^3).
The plants are kept in a humidity saturated environment, at 21° C., for the incubation period of the fungus and, at the end of this period (7 days), the fungicidal activity is evaluated according to an evaluation percentage scale from 100 (healthy plant) to 0 (completely infected plant).
From the data indicated in tables 1-2, it is possible to verify the synergistic effect of the mixtures, consisting of the mixtures being examined, compared with the expected efficacy using the Limpel formula (“Pesticide Science” (1987), vol. 19, pages 309-315): […]
wherein: • E is the fungicidal activity expected, in the absence of synergistic effects, from a mixture obtained by mixing g·x of compound X with g·y of compound Y; • x is the activity of compound X when used alone with a dosage of g·x; • y is the activity of compound Y when used alone with a dosage of g·y. […]

Take K2HPO3 [Mixture K2HPO3]: the “Activity (y)” value is 5 with Phytophthora infestans (listed salt alone at 750 ppm equivalent phosphorous acid) and 45 with Plasmopara viticola (listed salt alone at 500 ppm equivalent phosphorous acid, scale 100 (healthy) to 0 (completely infected)).
With `O=[PH]([O-])[O-].[Cu+2]` [CuHPO3, copper (II) salt of phosphorous acid], the “Activity (y)” value with Phytophthora infestans (Table 4: listed phosphite salt(s) alone at 750 ppm equivalent phosphorous acid) turned out to be 12; with Phytophthora infestans (Table 5: listed phosphite salt(s) alone at 750 ppm equivalent phosphorous acid), 12; with Plasmopara viticola (listed phosphite salt(s) alone at 250 ppm equivalent phosphorous acid, scale 100 to 0), 35.
